Test results from patent publication US20050009840A1 (SUGEN, INC., priority 2003, published 2005).

biological target: T1, Met kinase domain (GST fusion protein) (Homo sapiens, UniProt P08581); assay: Met transphosphorylation assay (ELISA, poly(glu-tyr) substrate); assay type: biochemical; details: read-out: Met IC50;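 also: Cell-free ELISA with plate-bound poly(Glu:Tyr 4:1) phosphorylated by GST-fused Met kinase domain plus ATP and Mn2+, phosphotyrosine detected by anti-phosphotyrosine antibody with HRP and ABTS read-out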
T1 construct: Purified GST fusion protein containing the Met kinase domain
T1 sequence (P08581 1078-1345 limits assumed): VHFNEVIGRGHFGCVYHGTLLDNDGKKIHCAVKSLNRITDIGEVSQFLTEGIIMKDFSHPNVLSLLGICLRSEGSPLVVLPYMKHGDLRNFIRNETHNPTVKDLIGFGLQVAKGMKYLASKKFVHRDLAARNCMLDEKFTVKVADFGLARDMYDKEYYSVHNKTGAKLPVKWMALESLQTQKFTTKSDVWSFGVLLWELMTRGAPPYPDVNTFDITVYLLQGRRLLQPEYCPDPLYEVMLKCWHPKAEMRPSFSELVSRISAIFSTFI
Description: General procedure is as follows: a compound is introduced to cells expressing the test kinase, either naturally or recombinantly, for a selected period of time after which, if the test kinase is a receptor, a ligand known to activate the receptor is added. The cells are lysed and the lysate is transferred to the wells of an ELISA plate previously coated with a specific antibody recognizing the substrate of the enzymatic phosphorylation reaction. Non-substrate components of the cell lysate are washed away and the amount of phosphorylation on the substrate is detected with an antibody specifically recognizing phosphotyrosine compared with control cells that were not contacted with a test compound.
Met Transphosphorylation Assay
This assay is used to measure phosphotyrosine levels on a poly(glutamic acid:tyrosine, 4:1) substrate as a means for identifying agonists/antagonists of met transphosphorylation of the substrate.
PBS, Gibco Catalog # 450-1300EB • 4. 50 mM HEPES • 5. […] Purified GST fusion protein containing the Met kinase domain, SUGEN, Inc. • 7. TBST Buffer. • 8. 10% aqueous (MilliQue H2O) DMSO. • 9. […] 2× Kinase Dilution Buffer: for 100 mL, mix 10 mL 1M HEPESat pH 7.5 with 0.4 mL 5% BSA/PBS, 0.2 mL 0.1 M sodium orthovanadate and 1 mL 5M sodium chloride in 88.4 mL dH2O. • 11. 4× ATP Reaction Mixture: for 10 mL, mix 0.4 mL 1 M manganese chloride and 0.02 mL 0.1 M ATP in 9.56 mL dH2O. • 12. 4× Negative Controls Mixture: for 10 mL, mix 0.4 mL 1 M manganese chloride in 9.6 mL dH2O. • 13. […] 500 mM EDTA. • 15. Antibody Dilution Buffer: for 100 mL, mix 10 mL 5% BSA/PBS, 0.5 mL 5% Carnation® Instant Milk in PBS and 0.1 mL 0.1 M sodium orthovanadate in 88.4 mL TBST. • 16. Rabbit polyclonal antophosphotyrosine antibody, SUGEN, Inc. • 17. Goat anti-rabbit horseradish peroxidase conjugated antibody, Biosource, Inc. • 18. ABTS Solution: for 1 L, mix 19.21 g citric acid, 35.49 g Na2HPO4 and 500 mg ABTS with sufficient dH2O to make 1 L. • 19. ABTS/H2O2: mix 15 mL ABST solution with 2μL H2O2 five minutes before use. • 20. 0.2 M HCl Procedure: • 1. Coat ELISA plates with 2 μg Poly(Glu-Tyr) in 100 μL PBS, hold-overnight at 4° C. • 2. Block plate with 150 μL of 5% BSA/PBS for 60 min. • 3. Wash plate twice with PBS then once with 50 mM Hepes buffer pH 7.4. • 4. Add 50 μl of the diluted kinase to all wells. (Purified kinase is diluted with Kinase Dilution Buffer. Final concentration should be 10 ng/well.) • 5. Add 25 μL of the test compound (in 4% DMSO) or DMSO alone (4% in dH2O) for controls to plate. • 6. Incubate the kinase/compound mixture for 15 minutes. • 7. Add 25 μL of 40 mM MnCl2 to the negative control wells. • 8. Add 25 μL ATP/MnCl2 mixture to the all other wells (except the negative controls). Incubate for 5 min. • 9. Add 25 μL 500 mM EDTA to stop reaction. • 10. Wash plate 3× with TBST. • 11. Add 100 μL rabbit polyclonal anti-Ptyr diluted 1:10,000 in Antibody Dilution Buffer to each well. Incubate, with shaking, at room temperature for one hour. • 12. Wash plate 3× with TBST. • 13. […] Add 100 μL per well and incubate at room temperature, with shaking, for one hour. • 14. Wash plate 1× with PBS. • 15. Add 100 μl of ABTS/H2O2 solution to each well. • 16. If necessary, stop the development reaction with the addition of 100 μl of 0.2M HCl per well. • 17.

Going from `Nc1ncc(-c2ccc(OCc3ccccc3)c(F)c2)cc1OCc1c(Cl)cccc1Cl` [Example I-34, 5-(4-Benzyloxy-3-fluoro-phenyl)-3-(2,6-dichloro-benzyloxy)-pyridin-2-ylamine] to `Nc1ncc(-c2ccc3[nH]ccc3c2)cc1OCc1c(Cl)cccc1Cl` [Example I-58, 3-(2,6-Dichloro-benzyloxy)-5-(1H-indol-5-yl)-pyridin-2-ylamine], the IC50 falls from 13.5 µM to 4.3 µM (3.1-fold). The second is the more potent here.

`Nc1ncc(-c2ccc(C(=O)O)cc2)cc1OCc1c(Cl)cccc1Cl` [Example I-35, 4-[6-Amino-5-(2,6-dichloro-benzyloxy)-pyridin-3-yl]-benzoic acid] and `Nc1ncc(-c2cccc(C(=O)O)c2)cc1OCc1c(Cl)cccc1Cl` [Example I-53, 3-[6-Amino-5-(2,6-dichloro-benzyloxy)-pyridin-3-yl]-benzoic acid] are within 1.5-fold of each other in IC50: 12.8 µM for the first, 16 µM for the second.

`CCN(CC)CCNC(=O)c1ccc(-c2cnc(N)c(OCc3c(Cl)cccc3Cl)c2)cc1` [Example I-36, 4-[6-Amino-5-(2,6-dichloro-benzyloxy)-pyridin-3-yl]-N-(2-diethylamino-ethyl)-benzamide] and `CCN(CC)CCCNC(=O)c1ccc(-c2cnc(N)c(OCc3c(Cl)cccc3Cl)c2)cc1` [Example I-37, 4-[6-Amino-5-(2,6-dichloro-benzyloxy)-pyridin-3-yl]-N-(3-diethylamino-propyl)-benzamide] are within 1.5-fold of each other in IC50: 0.99 µM for the first, 0.82 µM for the second.

First: CN1CCN(C(=O)c2ccc(-c3cnc(N)c(OCc4c(Cl)cccc4Cl)c3)cc2)CC1 [Example I-38, {4-[6-Amino-5-(2,6-dichloro-benzyloxy)-pyridin-3-yl]-phenyl}-(4-methyl-piperazin-1-yl)-methanone]
Second: Nc1ncc(-c2ccc(C(=O)N3CCN(C4CC4)CC3)cc2)cc1OCc1c(Cl)cccc1Cl [Example I-48, {4-[6-Amino-5-(2,6-dichloro-benzyloxy)-pyridin-3-yl]-phenyl}-(4-cyclopropyl-piperazin-1-yl)-methanone]
The IC50 of the first is 1.6-fold lower: 1.02 µM for the first, 1.67 µM for the second.

`Nc1ncc(-c2ccc(C(=O)N3CCC(CCO)CC3)cc2)cc1OCc1c(Cl)cccc1Cl` [Example I-42, {4-(6-Amino-5-(2,6-dichloro-benzyloxy)-pyridin-3-yl]-phenyl}-[4-(2-hydroxy-ethyl)-piperidin-1-yl]-methanone] and `CN(C)[C@H]1CCN(C(=O)c2ccc(-c3cnc(N)c(OCc4c(Cl)cccc4Cl)c3)cc2)C1` [Example I-43, {4-[6-Amino-5-(2,6-dichloro-benzyloxy)-pyridin-3-yl]-phenyl}-[(3S)-3-dimethylamino-pyrrolidin-1-yl]-methanone] are within 1.5-fold of each other in IC50: 0.56 µM for the first, 0.47 µM for the second.

Going from `CN(C)[C@@H]1CCN(C(=O)c2ccc(-c3cnc(N)c(OCc4c(Cl)cccc4Cl)c3)cc2)C1` [Example I-44, {4-[6-Amino-5-(2,6-dichloro-benzyloxy)-pyridin-3-yl]-phenyl}-[(3R)-3-dimethylamino-pyrrolidin-1-yl]-methanone] to `Nc1ncc(-c2ccc(C(=O)N3CCC[C@@H]3CNCC3CC3)cc2)cc1OCc1c(Cl)cccc1Cl` [Example I-49, {4-[6-Amino-5-(2,6-dichloro-benzyloxy)-pyridin-3-yl]-phenyl}-{(2R)-2-[(cyclopropylmethyl-amino)-methyl]-pyrrolidin-1-yl}-methanone], the IC50 falls from 0.65 µM to 0.37 µM (1.8-fold). The second is the more potent here.

Going from `Nc1ncc(-c2ccc(C(=O)NCC(O)CN3CCCC3)cc2)cc1OCc1c(Cl)cccc1Cl` (centres unmarked) [Example I-46, 4-[6-Amino-5-(2,6-dichloro-benzyloxy)-pyridin-3-yl]-N-(2-hydroxy-3-pyrrolidin-1-yl-propyl)-benzamide] to `CN(CC(O)CN1CCCC1)C(=O)c1ccc(-c2cnc(N)c(OCc3c(Cl)cccc3Cl)c2)cc1` (centres unmarked) [Example I-51, 4-[6-Amino-5-(2,6-dichloro-benzyloxy)-pyridin-3-yl]-N-(2-hydroxy-3-pyrrolidin-1-yl-propyl)-N-methyl-benzamide], the IC50 rises from 0.2 µM to 0.71 µM (3.5-fold). The first is the more potent here.

`Nc1ncc(-c2ccc(C(=O)N3CCC[C@H]3CN3CCCC(F)C3)cc2)cc1OCc1c(Cl)cccc1Cl` (stereo partly drawn) [Example I-47, {4-[6-Amino-5-(2,6-dichloro-benzyloxy)-pyridin-3-yl]-phenyl}-[(2S)-2-(3-fluoro-piperidin-1-ylmethyl)-pyrrolidin-1-yl]-methanone] and `Nc1ncc(-c2ccc(C(=O)N3CCC[C@H]3CN3CC[C@@H](O)C3)cc2)cc1OCc1c(Cl)cccc1Cl` [Example I-52, {4-[6-Amino-5-(2,6-dichloro-benzyloxy)-pyridin-3-yl]-phenyl}-{(2S)-2-[(3R)-3-hydroxy-pyrrolidin-1-ylmethyl]-pyrrolidin-1-yl}-methanone] are within 1.5-fold of each other in IC50: 0.42 µM for the first, 0.53 µM for the second.

First: Nc1ncc(-c2ccc(C(=O)N(CC3CC3)C[C@H]3CCCN3)cc2)cc1OCc1c(Cl)cccc1Cl [Example I-50, 4-[6-Amino-5-(2,6-dichloro-benzyloxy)-pyridin-3-yl]-N-cyclopropylmethyl-N-(2R)-pyrrolidin-2-ylmethyl-benzamide]
Second: Nc1ncc(-c2ccc(OCC(=O)O)cc2)cc1OCc1c(Cl)cccc1Cl [Example I-55, {4-[6-Amino-5-(2,6-dichloro-benzyloxy)-pyridin-3-yl]-phenoxy}-acetic acid]
The IC50 of the first is 8.3-fold lower: 0.29 µM for the first, 2.41 µM for the second.

Compared with `Nc1ncc(-c2cccc(C(=O)N3CCC[C@@H]3CN3CCCC3)c2)cc1OCc1c(Cl)cccc1Cl` [Example I-54, {3-(6-Amino-5-(2,6-dichloro-benzyloxy)-pyridin-3-yl]-phenyl}-[(2R)-2-pyrrolidin-1-ylmethyl-pyrrolidin-1-yl]-methanone], `Nc1ncc(-c2ccc(OCC(=O)N3CCC[C@@H]3CN3CCCC3)cc2)cc1OCc1c(Cl)cccc1Cl` [Example I-56, 2-{4-[6-Amino-5-(2,6-dichloro-benzyloxy)-pyridin-3-yl]-phenoxy}-1-[(2R)-2-pyrrolidin-1-ylmethyl-pyrrolidin-1-yl]-ethanone] is 4.7-fold lower in IC50: 2.5 µM for the first, 0.53 µM for the second. The second is the more potent here.

Compared with `Nc1ncc(-c2ccc(OCC(=O)N3CCC[C@H]3CN3CCCC3)cc2)cc1OCc1c(Cl)cccc1Cl` [Example I-57, 2-{4-[6-Amino-5-(2,6-dichloro-benzyloxy)-pyridin-3-yl]-phenoxy}-1-[(2S)-2-pyrrolidin-1-ylmethyl-pyrrolidin-1-yl]-ethanone], `Nc1ncc(-c2ccc3[nH]cc(CN4CCCCC4)c3c2)cc1OCc1c(Cl)cccc1Cl` [Example I-62, 3-(2,6-Dichloro-benzyloxy)-5-(3-piperidin-1-ylmethyl-1H-indol-5-yl)-pyridin-2-ylamine] is 2.8-fold higher in IC50: 0.5 µM for the first, 1.41 µM for the second. The first is the more potent here.

Going from `CN1CC=C(c2c[nH]c3ccc(-c4cnc(N)c(OCc5c(Cl)cccc5Cl)c4)cc23)CC1` [Example I-59, 3-(2,6-Dichloro-benzyloxy)-5-[3-(1-methyl-1,2,3,6-tetrahydro-pyridin-4-yl)-1H-indol-5-yl]-pyridin-2-ylamine] to `CN1CCC(c2c[nH]c3ccc(-c4cnc(N)c(OCc5c(Cl)cccc5Cl)c4)cc23)CC1` [Example I-60, 3-(2,6-Dichloro-benzyloxy)-5-[3-(1-methyl-piperidin-4-yl)-1H-indol-5-yl]-pyridin-2-ylamine], the IC50 rises from 1.57 µM to 3.04 µM (1.9-fold).

`Nc1ncc(-c2ccc3[nH]cc(CN4CCOCC4)c3c2)cc1OCc1c(Cl)cccc1Cl` [Example I-61, 3-(2,6-Dichloro-benzyloxy)-5-(3-morpholin-4-ylmethyl-1H-indol-5-yl)-pyridin-2-ylamine] and `Nc1ncc(-c2ccc3[nH]cc(CN4CCCC4)c3c2)cc1OCc1c(Cl)cccc1Cl` [Example I-63, 3-(2,6-Dichloro-benzyloxy)-5-(3-pyrrolidin-1-ylmethyl-1H-indol-5-yl)-pyridin-2-ylamine] are within 1.5-fold of each other in IC50: 1.19 µM for the first, 1.34 µM for the second.

First: CCN(CC)Cc1c[nH]c2ccc(-c3cnc(N)c(OCc4c(Cl)cccc4Cl)c3)cc12 [Example I-64, 3-(2,6-Dichloro-benzyloxy)-5-(3-diethylaminomethyl-1H-indol-5-yl)-pyridin-2-ylamine]
Second: C[C@@H]1CN(Cc2c[nH]c3ccc(-c4cnc(N)c(OCc5c(Cl)cccc5Cl)c4)cc23)C[C@H](C)O1 [Example I-66, 3-(2,6-Dichloro-benzyloxy)-5-[3-(2,6-dimethyl-morpholin-4-ylmethyl)-1H-indol-5-yl]-pyridin-2-ylamine]
The IC50 of the first is lower: 3.23 µM for the first, > 20 µM for the second. The first is the more potent here.

Compared with `CC(C)(C)OC(=O)N[C@@H]1CCN(Cc2c[nH]c3ccc(-c4cnc(N)c(OCc5c(Cl)cccc5Cl)c4)cc23)C1` [Example I-65], `CC(=O)N[C@@H]1CCN(Cc2c[nH]c3ccc(-c4cnc(N)c(OCc5c(Cl)cccc5Cl)c4)cc23)C1` [Example I-67, N-(1-{5-[6-Amino-5-(2,6-dichloro-benzyloxy)-pyridin-3-yl]-1H-indol-3-ylmethyl}-(3R)-pyrrolidin-3-yl)-acetamide] is 3.5-fold lower in IC50: 6.3 µM for the first, 1.79 µM for the second. The second is the more potent here.

Compared with `CC(=O)N1CCN(Cc2c[nH]c3ccc(-c4cnc(N)c(OCc5c(Cl)cccc5Cl)c4)cc23)CC1` [Example I-68, 1-(4-{5-[6-Amino-5-(2,6-dichloro-benzyloxy)-pyridin-3-yl]-1H-indol-3-ylmethyl}-piperazin-1-yl)-ethanone], `CC(=O)N1CCN(Cc2c[nH]c3ccc(-c4cnc(N)c(OCc5c(F)ccc(F)c5Cl)c4)cc23)CC1` [Example I-70, 1-(4-{5-[6-Amino-5-(2-chloro-3,6-difluoro-benzyloxy)-pyridin-3-yl]-1H-indol-3-ylmethyl}-piperazin-1-yl)-ethanone] is 2.7-fold lower in IC50: 2.18 µM for the first, 0.8 µM for the second. The second is the more potent here.

First: C[C@@H]1CN(Cc2c[nH]c3ccc(-c4cnc(N)c(OCc5c(F)ccc(F)c5Cl)c4)cc23)C[C@H](C)O1 [Example I-71, 3-(2-Chloro-3,6-difluoro-benzyloxy)-5-[3-(2,6-dimethyl-morpholin-4-ylmethyl)-1H-indol-5-yl]-pyridin-2-ylamine]
Second: CC(=O)N[C@H]1CCN(Cc2c[nH]c3ccc(-c4cnc(N)c(OCc5c(F)ccc(F)c5Cl)c4)cc23)C1 [Example I-72, N-(1-{5-[6-Amino-5-(2-chloro-3,6-difluoro-benzyloxy)-pyridin-3-yl]-1H-indol-3-ylmethyl}-(3S)-pyrrolidin-3-yl)-acetamide]
The IC50 of the first is 2.9-fold higher: 2.71 µM for the first, 0.95 µM for the second.

`Nc1ncc(-c2ccc3[nH]cc(CN4CCCCC4)c3c2)cc1OCc1c(F)ccc(F)c1Cl` [Example I-73, 3-(2-Chloro-3,6-difluoro-benzyloxy)-5-(3-piperidin-1-ylmethyl-1H-indol-5-yl)-pyridin-2-ylamine] gave an IC50 of 0.74 µM.
